SMILES strings stand for the structures.

The target in the first test is AMPK. Description: AMPK activation, enzyme-linked immunosorbent assay. Conditions: ELISA, Table 2. Type of test: biochemical. As to the method:
Compounds 1-13 were assayed for their ability to activate AMPK using an enzyme-linked immunosorbent assay.
Compounds 14-16 were assayed for their ability to activate AMPK using an enzyme-linked immunosorbent assay.
Compounds 17-18 were assayed for their ability to activate AMPK using an enzyme-linked immunosorbent assay.
Compounds 19-22 were assayed for their ability to activate AMPK using an enzyme-linked immunosorbent assay.
Compounds 23-26 were assayed for their ability to activate AMPK using an enzyme-linked immunosorbent assay.
Compounds 27-33 were assayed for their ability to activate AMPK using an enzyme-linked immunosorbent assay.
Compounds 34-42 were assayed for their ability to activate AMPK using an enzyme-linked immunosorbent assay.
(In general: An ELISA detects its analyte on a solid surface through an enzyme-linked reagent.)
The term EC50 denotes the concentration needed to bring the measured effect to its halfway point. A lower EC50 goes with an effect from little substance. Turning to `O=C(NC1CCN(Cc2ccncc2)CC1)c1nc2ccc(OC3CCN(c4ccc(C(F)(F)F)cc4)CC3)cc2o1` [Compound 3, N-(1-(Pyridin-4-ylmethyl)piperidin-4-yl)-6-(1-(4-(trifluoromethyl)phenyl)piperidin-4-yloxy)benzo[d]oxazole-2-carboxamide], the half-maximal effective concentration (EC50) was less than 100 nM.

Regarding `N#Cc1ccc(C(=O)N2CCC(NC(=O)c3nc4ccc(OC5CCN(c6ccc(C(F)(F)F)cc6)CC5)cc4o3)CC2)cc1` [Compound 6, N-(1-(4-Cyanobenzoyl)piperidin-4-yl)-6-(1-(4-(trifluoromethyl)phenyl)piperidin-4-yloxy)benzo[d]oxazole-2-carboxamide], the EC50 is less than 100 nM.

As to `O=C(c1ccncc1)N1CC2CC1CN2C(=O)c1nc2ccc(OC3CCN(c4ccc(C(F)(F)F)cc4)CC3)cc2o1` (centres unmarked) [Compound 11, (5-Isonicotinoyl-2,5-diazabicyclo[2.2.1]heptan-2-yl)(6-(1-(4-(trifluoromethyl)phenyl)piperidin-4-yloxy)benzo[d]oxazol-2-yl)methanone], the half-maximal effective concentration (EC50) was in the range of 100 to 1000 nM.

The molecule `N#Cc1ccc(CN2CC3CC2CN3C(=O)c2nc3ccc(OC4CCN(c5ccc(C(F)(F)F)cc5)CC4)cc3o2)cc1` (centres unmarked) [Compound 10, 4-((5-(6-(1-(4-(Trifluoromethyl)phenyl)piperidin-4-yloxy)benzo[d]oxazole-2-carbonyl)-2,5-diazabicyclo[2.2.1]heptan-2-yl)methyl)benzonitrile] had an EC50 of 100 to 1000 nM.

For the molecule `O=C(NC1CCN(C(=O)c2ccc(F)cc2)CC1)c1nc2ccc(OC3CCN(c4ccc(C(F)(F)F)cc4)CC3)cc2o1` [Compound 4, N-(1-(4-Fluorobenzoyl)piperidin-4-yl)-6-(1-(4-(trifluoromethyl)phenyl)piperidin-4-yloxy)benzo[d]oxazole-2-carboxamide], the EC50 is less than 100 nM.

In turn, `O=C(NC1CCNCC1)c1nc2ccc(OC3CCN(c4ccc(C(F)(F)F)cc4)CC3)cc2o1` [Compound 5, N-(Piperidin-4-yl)-6-(1-(4-(trifluoromethyl)phenyl)piperidin-4-yloxy)benzo[d]oxazole-2-carboxamide] gave an EC50 of 10000 to 100000 nM.

Molecule `O=C(c1nc2ccc(OC3CCN(c4ccc(C(F)(F)F)cc4)CC3)cc2o1)N1CC2CC1CN2Cc1ccncc1` (centres unmarked) [Compound 8, (5-(pyridin-4-ylmethyl)-2,5-diazabicyclo[2.2.1]heptan-2-yl)(6-(1-(4-(trifluoromethyl)phenyl)piperidin-4-yloxy)benzo[d]oxazol-2-yl)methanone] gave an EC50 of 100 to 1000 nM.

On to `N#Cc1ccc(C(=O)N2CC3CC2CN3C(=O)c2nc3ccc(OC4CCN(c5ccc(C(F)(F)F)cc5)CC4)cc3o2)cc1` (centres unmarked) [Compound 12, 4-(5-(6-(1-(4-(trifluoromethyl)phenyl)piperidin-4-yloxy)benzo[d]oxazole-2-carbonyl)-2,5-diazabicyclo[2.2.1]heptane-2-carbonyl)benzonitrile], for which the EC50 was less than 100 nM.

`O=C(c1ccc(F)cc1)N1CC2CC1CN2C(=O)c1nc2ccc(OC3CCN(c4ccc(C(F)(F)F)cc4)CC3)cc2o1` (centres unmarked) [Compound 13, (5-(4-fluorobenzoyl)-2,5-diazabicyclo[2.2.1]heptan-2-yl)(6-(1-(4-(trifluoromethyl)phenyl)piperidin-4-yloxy)benzo[d]oxazol-2-yl)methanone]: the EC50 was less than 100 nM.

Staying with this test, now noted: ELISA, Table 3.
The molecule `CC(C)(C)OC(=O)N1CCC(NC(=O)c2nc3ccc(OC4CCN(c5ccc(C(F)(F)F)cc5)CC4)cc3s2)CC1` [Compound 14, tert-butyl 4-(6-(1-(4-(trifluoromethyl)phenyl)piperidin-4-yloxy)benzo[d]thiazole-2-carboxamido)piperidine-1-carboxylate] yielded a 50% effective concentration (EC50) of 1000 to 10000 nM.

Regarding `O=C(NC1CCN(Cc2ccncc2)CC1)c1nc2ccc(OC3CCN(c4ccc(C(F)(F)F)cc4)CC3)cc2s1` [Compound 15, N-(1-(Pyridin-4-ylmethyl)piperidin-4-yl)-6-(1-(4-(trifluoromethyl)phenyl)piperidin-4-yloxy)benzo[d]thiazole-2-carboxamide], the half-maximal effective concentration (EC50) lay within 100 to 1000 nM.

For `N#Cc1ccc(CN2CCC(NC(=O)c3nc4ccc(OC5CCN(c6ccc(C(F)(F)F)cc6)CC5)cc4s3)CC2)cc1` [Compound 16, N-(1-(4-Cyanobenzyl)piperidin-4-yl)-6-(1-(4-(trifluoromethyl)phenyl)piperidin-4-yloxy)benzo[d]thiazole-2-carboxamide], the EC50 was 100 to 1000 nM.

Staying with this test, now noted: ELISA, Table 4.
Take `O=C(NC1CCN(Cc2ccncc2)CC1)c1cn2ccc(OC3CCN(c4ccc(C(F)(F)F)cc4)CC3)cc2n1` [Compound 17, N-(1-(Pyridin-4-ylmethyl)piperidin-4-yl)-7-(1-(4-(trifluoromethyl)phenyl)piperidin-4-yloxy)imidazo[1,2-a]pyridine-2-carboxamide]: the EC50 is less than 100 nM.

The same test, now with this note: ELISA, Table 5.
The molecule `CC(C)(C)OC(=O)N1CCC(NC(=O)c2cnc(OC3CCN(c4ccc(C(F)(F)F)cc4)CC3)cn2)CC1` [Compound 19, tert-butyl 4-(5-(1-(4-(trifluoromethyl)phenyl)piperidin-4-yloxy)pyrazine-2-carboxamido)piperidine-1-carboxylate] had a concentration giving a half-maximal response (EC50) of 1000 to 10000 nM.

In turn, `O=C(NC1CCNCC1)c1cnc(OC2CCN(c3ccc(C(F)(F)F)cc3)CC2)cn1` [Compound 20, N-(piperidin-4-yl)-5-(1-(4-(trifluoromethyl)phenyl)piperidin-4-yloxy)pyrazine-2-carboxamide] gave a 50% effective concentration (EC50) greater than 100000 nM.

For the molecule `O=C(NC1CCN(Cc2ccncc2)CC1)c1cnc(OC2CCN(c3ccc(C(F)(F)F)cc3)CC2)cn1` [Compound 21, N-(1-(Pyridin-4-ylmethyl)piperidin-4-yl)-5-(1-(4-(trifluoromethyl)phenyl)piperidin-4-yloxy)pyrazine-2-carboxamide], the concentration giving a half-maximal response (EC50) is less than 100 nM.

The test is the same for the next values; noted with them: ELISA, Table 6.
For the molecule `N#Cc1ccc(CN2CCC(NC(=O)c3cnc(OC4CCN(c5ccc(C(F)(F)F)cc5)CC4)s3)CC2)cc1` [Compound 23, N-(1-(4-cyanobenzyl)piperidin-4-yl)-2-(1-(4-(trifluoromethyl)phenyl)piperidin-4-yloxy)thiazole-5-carboxamide], the EC50 is less than 100 nM.

In the case of `N#Cc1ccc(CN2CCC(NC(=O)c3cnc(OC4CCN(Cc5ccc(C(F)(F)F)cc5)CC4)s3)CC2)cc1` [Compound 25, N-(1-(4-Cyanobenzyl)piperidin-4-yl)-2-(1-(4-(trifluoromethyl)benzyl)piperidin-4-yloxy)thiazole-5-carboxamide], the EC50 is less than 100 nM.

`N#Cc1ccc(CN2CCC(NC(=O)c3cnc(OC4CCN(c5ccc(C#N)cc5)CC4)s3)CC2)cc1` [Compound 24, N-(1-(4-Cyanobenzyl)piperidin-4-yl)-2-(1-(4-cyanophenyl)piperidin-4-yloxy)thiazole-5-carboxamide] had an EC50 of less than 100 nM.

Staying with this test, now noted: ELISA, Table 7.
In turn, `N#Cc1ccc(CN2CCC(NC(=O)c3ccc(C(=O)N4CCN(Cc5ccc(Cl)cc5)CC4)cc3)CC2)cc1` [Compound 28, 4-(4-(4-Chlorobenzyl)piperazine-1-carbonyl)-N-(1-(4-cyanobenzyl)piperidin-4-yl)benzamide] registered an EC50 of less than 100 nM.

The molecule `N#Cc1ccc(CN2CCC(NC(=O)c3ccc(C(=O)N4CCN(c5ccc(C(F)(F)F)cn5)CC4)cc3)CC2)cc1` [Compound 30, N-(1-(4-Cyanobenzyl)piperidin-4-yl)-4-(4-(5-(trifluoromethyl)pyridin-2-yl)piperazine-1-carbonyl)benzamide] had an EC50 of less than 100 nM.

`N#Cc1ccc(CN2CCC(NC(=O)c3ccc(C(=O)NC4CCN(c5ccccc5)CC4)cc3)CC2)cc1` [Compound 32, N^1-(1-(4-Cyanobenzyl)piperidin-4-yl)-N^4-(1-phenylpiperidin-4-yl)terephthalamide] had an EC50 of 10000 to 100000 nM.

Consider `N#Cc1ccc(CN2CCC(NC(=O)c3ccc(C(=O)N4CCN(c5ccc(Cl)cc5)CC4)cc3)CC2)cc1` [Compound 29, 4-(4-(4-Chlorophenyl)piperazine-1-carbonyl)-N-(1-(4-cyanobenzyl)piperidin-4-yl)benzamide], for which the concentration giving a half-maximal response (EC50) is 10000 to 100000 nM.

As to `N#Cc1ccc(CN2CCC(NC(=O)c3ccc(C(=O)NC4CCN(Cc5ccc(C(F)(F)F)cc5)CC4)cc3)CC2)cc1` [Compound 31, N^1-(1-(4-Cyanobenzyl)piperidin-4-yl)-N^4-(1-(4-(trifluoromethyl)benzyl)piperidin-4-yl)terephthalamide], the EC50 was less than 100 nM.

`N#Cc1ccc(CN2CCC(NC(=O)c3ccc(C(=O)NC4CCN(Cc5ccccc5)CC4)cc3)CC2)cc1` [Compound 33, N^1-(1-Benzylpiperidin-4-yl)-N^4-(1-(4-cyanobenzyl)piperidin-4-yl)terephthalamide] yielded a concentration giving a half-maximal response (EC50) of 10000 to 100000 nM.

The same test, now with this note: ELISA, Table 8.
Molecule `O=C(NC1CCN(Cc2ccc(C(F)(F)F)cc2)CC1)c1ccc2c(c1)CN(Cc1ccc(F)cc1)CC2` [Compound 42, 2-(4-Fluorobenzyl)-N-(1-(4-(trifluoromethyl)benzyl)piperidin-4-yl)-1,2,3,4-tetrahydroisoquinoline-7-carboxamide] registered an EC50 of 100 to 1000 nM.

In turn, `N#Cc1ccc(CN2CCc3ccc(C(=O)NC4CCN(Cc5cccnc5)CC4)cc3C2)cc1` [Compound 38, 2-(4-Cyanobenzyl)-N-(1-(pyridin-3-ylmethyl)piperidin-4-yl)-1,2,3,4-tetrahydroisoquinoline-7-carboxamide] gave an EC50 of less than 100 nM.

Consider `N#Cc1ccc(CN2CCC(NC(=O)c3ccc4c(c3)CN(Cc3ccc(C#N)cc3)CC4)CC2)cc1` [Compound 37, 2-(4-cyanobenzyl)-N-(1-(4-cyanobenzyl)piperidin-4-yl)-1,2,3,4-tetrahydroisoquinoline-7-carboxamide], for which the EC50 was less than 100 nM.

As for `N#Cc1ccc(CN2CCc3ccc(C(=O)NC4CCN(Cc5ccc(C(F)(F)F)cc5)CC4)cc3C2)cc1` [Compound 39, 2-(4-Cyanobenzyl)-N-(1-(4-(trifluoromethyl)benzyl)piperidin-4-yl)-1,2,3,4-tetrahydroisoquinoline-7-carboxamide], the half-maximal effective concentration (EC50) fell in the range of 1000 to 10000 nM.

Values taken from patent publication US9255085B2, “Carboxamide compounds and methods for using the same” (Rigel Pharmaceuticals, Inc., priority 2008, dated 2016).
